The results in this text go back to publication PMC6332318, “Synthetic Development of New 3-(4-Arylmethylamino)butyl-5-arylidene-rhodanines under Microwave Irradiation and Their Effects on Tumor Cell Lines and against Protein Kinases” (Molecules, 2015).

The test system of data set [1] is HCT 116 cells (actively proliferating colorectal adenocarcinoma). Kind of data set: in vitro inhibition of cell proliferation / survival assay. The note with it: for viability at 25 µM / IC50: Homo sapiens; for viability at 25 µM / % of Survival: measured at 25 μM after 48 h, single dose, triplicate; for IC50: 48 h, average of three assays, standard error ± 0.5 μM. The data set is classed as cell-based. On the procedure: (§1) As an initial effort to investigate their in vitro bioactivity, the new synthesized 3-(4-arylmethylamino)butyl-2-thioxo-1,3-thiazolidine-4-one 9a–n and also their precursors 6a–f were evaluated for their in vitro inhibition of cell proliferation. For this study, we used a panel of seven representative tumoral cell lines, namely HuH7 D12 (differential hepato cellular carcinoma), Caco 2 (differentiating colorectal adenocarcinoma), MDA-MBD231 ([…]), HCT 116 (actively proliferating colorectal adenocarcinoma), PC3 (prostate carcinoma), NCI-H727 (lung carcinoma), HaCat keratinocyte and, diploid skin fibroblasts as normal cell lines for control.
(§2) Skin diploid fibroblastic cells were provided by BIOPREDIC International Company (Rennes, France). Caco2 (Ref ECACC: 86010202), Huh-7D12 (Ref ECACC: 01042712), MDA-MB-231 (Ref ECACC: 92020424), HCT-116 (Ref ECACC: 91091005), PC3 (Ref ECACC: 90112714), NCI-H727 (Ref ECACC: 94060303) cell lines were obtained from the ECACC collection and HaCaT (from Cell Lines Service, Eppelheim, Germany). Cells were grown according to ECACC recommendations. The toxicity test of the compounds on these cells was as follows: 2 × 10^3 cells for HCT-116 cells or 4 × 10^3 for the other cells were seeded in 96 multiwell plates in triplicate and left for 24 h for attachment, spreading and growing. Then, cells were exposed for 48 h to increasing concentrations of the compounds, ranging from 0.1 to 25 μM in a final volume of 120 μL of culture medium. Cells were fixed in cooled solution of 90% ethanol/5% acetic acid, nuclei were stained with Hoechst 3342 (Sigma) and counted using automated imaging analysis (Cellomics Arrayscan VTI/HCS Reader, Thermo/Scientific, Waltham, MA, USA). The IC50 were graphically determined.

Another data set relates to HaCat keratinocyte. Described as above. Type of data set: cell-based. The note with it: for viability at 25 µM / IC50: Homo sapiens; for viability at 25 µM / % of Survival: measured at 25 μM after 48 h, single dose, triplicate; for IC50: HaCaT, 48 h, average of three assays, standard error ± 0.5 μM. On the procedure:
as §1, §2

Data set [2] concerns PC3 cells (prostate carcinoma). Described as above. Type of data set: cell-based. The note with it: for viability at 25 µM: PC-3, measured at 25 μM after 48 h; for viability at 25 µM / % of Survival: single dose, triplicate; for % of Survival: measured at 25 μM after 48 h. Here is the method: as §1, §2
The next data set relates to MDA-MB231 cells. The data set is described as above. The data set is classed as cell-based. The settings on record: for viability at 25 µM / IC50: Homo sapiens; for viability at 25 µM: MDA-MB-231, measured at 25 μM after 48 h; for viability at 25 µM / % of Survival: single dose, triplicate; for % of Survival: measured at 25 μM after 48 h; for IC50: MDA-MB-231, 48 h, average of three assays, standard error ± 0.5 μM. Here is the method: as §1, §2

The subject of data set [3] is Huh7 D12 cells (differential hepato cellular carcinoma). Described as above. Type of data set: cell-based. The note with it: for viability at 25 µM: Huh-7D12, measured at 25 μM after 48 h; for viability at 25 µM / % of Survival: single dose, triplicate; for % of Survival: measured at 25 μM after 48 h; for IC50: Huh-7D12, 48 h, average of three assays, standard error ± 0.5 μM. On the procedure: as §1, §2

For data set [4], the system named is NCI-H727 cells (lung carcinoma). The description is as above. The settings on record: for viability at 25 µM: Homo sapiens, read-out: % of Survival. Type of data set: cell-based. On the procedure: as §1, §2
In data set [5] the test system is Caco 2 cells (differentiating colorectal adenocarcinoma). The description is as above. The data set is classed as cell-based. The note with it: for viability at 25 µM / IC50: Homo sapiens; for viability at 25 µM / % of Survival: measured at 25 μM after 48 h, single dose, triplicate; for IC50: 48 h, average of three assays, standard error ± 0.5 μM. Here is the method: as §1, §2

For another data set, the system named is diploid skin fibroblasts. Kind of data set: in vitro inhibition of cell proliferation / survival assay, normal cells control. Type of data set: cell-based. The settings on record: for viability at 25 µM: read-out: % of Survival. On the procedure:
as §1, §2

[6] abbreviates: NCI-H727, measured at 25 μM after 48 h, single dose, triplicate.
Setting [7] is: Skin fibroblast, Fibroblasts, measured at 25 μM after 48 h, single dose, triplicate.
Where [8] appears, read: Fibroblasts, measured at 25 μM after 48 h, single dose, triplicate.

SMILES strings stand for the structures. Where two headings read alike, the source gives them in different places.

For the compound `COc1ccc(CNCCCCN2C(=O)/C(=C/c3ccc4c(c3)OCCO4)SC2=S)cc1` [Compound 9c, (5Z)3-[4-(4-Methoxyphenylmethylamino)butyl]-5-(2,3-dihydro-1,4-benzodioxin-6-ylmethylene)-2-thioxo-1,3-thiazolidin-4-one], the melting point (in general, the temperature, or range, at which the solid turns liquid) fell in the range of 255 to 261 °C. In addition, the viability at 25 µM in [1] is 97%. Besides, the viability at 25 µM in the data set with HaCat keratinocyte came out at 101%. Besides, the viability at 25 µM in data set [2] (Homo sapiens) was determined as 97%. Further, the viability at 25 µM in the data set on MDA-MB231 cells was 92%. In [3], the viability at 25 µM amounted to 88%. For the same compound, in data set [4] (setting [6]), the viability at 25 µM was found to be 95%. Also, the viability at 25 µM in data set [5] stood at 93%. The viability at 25 µM in the data set with diploid skin fibroblasts (setting [7]) amounted to 102%.

`COc1cccc(CNCCCCN2C(=O)/C(=C/c3ccc4c(c3)OCCO4)SC2=S)c1` [Compound 9f, (5Z)3-[4-(3-Methoxyphenylmethylamino)butyl]-5-(2,3-dihydro-1,4-benzodioxin-6-ylmethylene)-2-thioxo-1,3-thiazolidin-4-one] gave a melting point of 247 to 251 °C. Also, in data set [1], the viability at 25 µM turned out to be 113%. In addition, in the data set on HaCat keratinocyte, the viability at 25 µM came to 100%. For the same compound, in data set [2] (Homo sapiens), the viability at 25 µM is 98%. In addition, in the data set with MDA-MB231 cells, the viability at 25 µM stood at 98%. Further, the viability at 25 µM in data set [3] stood at 102%. Moreover, the viability at 25 µM in data set [4] (setting [6]) turned out to be 96%. The viability at 25 µM in data set [5] is 110%. The viability at 25 µM in the data set with diploid skin fibroblasts (setting [7]) was found to be 134%.

With `CC[C@H](CO)Nc1nc(NCc2ccccc2)c2ncn(C(C)C)c2n1` [Roscovitine, reference compound], the viability at 25 µM in data set [4] (NCI-H727, 48 h) worked out at 30%; in the data set on diploid skin fibroblasts (Skin fibroblast, 48 h) it was 53%.

Take `Cl.NCCCCNCc1ccccc1Cl` [Compound 6c, N-1-(2-Chloro-phenylmethyl)-butane1,4-diamine hydrochloride]: the “% of Survival” value is listed as 98% in data set [1]; 80% in the data set with HaCat keratinocyte; 96% in data set [2]; 102% in the data set on MDA-MB231 cells; 82% in [3]; 100% in [4] (setting [6]). The “% of Survival” value in data set [5] was 93%; with diploid skin fibroblasts (setting [8]), 84%.

On to `O=C1/C(=C/c2ccc3c(c2)OCCO3)SC(=S)N1CCCCNCc1ccc2c(c1)OCCO2` [Compound 9m, (5Z)3-[4-(2,3-Dihydro-benzo[1,4]dioxin-6-ylmethylamino)butyl]-5-(2,3-dihydro-benzo[1,4]dioxin-6-ylmethylene)-2-thioxo-1,3-thiazolidin-4-one], for which the viability at 25 µM in [1] is 103%; with HaCat keratinocyte, 94%; in [2] (Homo sapiens), 96%; in the data set on MDA-MB231 cells, 99%; in [3], 97%; in data set [4] (setting [6]), 98%. For the same compound, the values for the viability at 25 µM (in data set [5]; in the data set with diploid skin fibroblasts (setting [7])) were 107% and 149%, respectively.

Consider `O=C1/C(=C/c2ccc3c(c2)OCO3)SC(=S)N1CCCCNCc1ccc2c(c1)OCCO2` [Compound 9l, (5Z)-[4-(2,3-Dihydro-benzo[1,4]dioxin-6-ylmethylamino)butyl]-5-(1,3-benzodioxol-5-ylmethylene)-2-thioxo-1,3-thiazolidin-4-one], for which the viability at 25 µM in data set [1] amounted to 106%; in the data set on HaCat keratinocyte, 95%; in data set [2] (Homo sapiens), 93%; in the data set on MDA-MB231 cells it was 98%; in data set [3], 90%; in data set [4] (setting [6]) it was 96%. The viability at 25 µM in data set [5] is 105%; in the data set on diploid skin fibroblasts (setting [7]), 128%.

With `COc1cccc2c1C(=O)c1c(O)c3c(c(O)c1C2=O)C[C@@](O)(C(=O)CO)C[C@@H]3O[C@H]1C[C@H](N)[C@H](O)[C@H](C)O1` [Doxorubicine, reference compound], the IC50 (in general, the concentration needed to halve the response being measured) in data set [1] came to 30 nM; in the data set with HaCat keratinocyte, 20 nM; in the data set with MDA-MB231 cells it was 10 nM; in data set [3], 30 nM; in [5], 30 nM. Further, the viability at 25 µM was 22% in [1]; 88% in the data set on HaCat keratinocyte; 34% in data set [2] (Homo sapiens); 82% in the data set with MDA-MB231 cells; 63% in data set [3]; 65% in data set [4] (setting [6]). In addition, the viability at 25 µM in [5] worked out at 43%; with diploid skin fibroblasts (setting [7]), 74%.

Consider `Cl.NCCCCNCc1ccc2c(c1)OCCO2` [Compound 6f, N-1-(2,3-Dihydro-benzo[1,4]dioxin-6-ylmethyl)-butane-1,4-diamine hydrochloride], for which the “% of Survival” value in data set [1] is 96%; in the data set on HaCat keratinocyte, 94%; in [2], 97%; with MDA-MB231 cells, 99%; in data set [3], 88%; in data set [4] (setting [6]) it was 92%. For the same compound, the “% of Survival” value in data set [5] is recorded as 109%; in the data set with diploid skin fibroblasts (setting [8]) it was 105%.

With `CC(=O)O[C@H]1C(=O)[C@@]2(C)[C@H]([C@H](OC(=O)c3ccccc3)[C@]3(O)C[C@H](OC(=O)[C@H](O)[C@@H](NC(=O)c4ccccc4)c4ccccc4)C(C)=C1C3(C)C)[C@]1(OC(C)=O)CO[C@@H]1C[C@@H]2O` [Taxol, reference compound], the IC50 in data set [1] is less than 1 nM; in the data set with HaCat keratinocyte, 1 nM; in [2] (Homo sapiens, PC-3, 48 h, average of three assays, standard error ± 0.5 μM) it was less than 1 nM; with MDA-MB231 cells, 40 nM; in data set [3] it was 3 nM; in data set [5] it was 40 nM. This compound showed an IC50 with diploid skin fibroblasts (Skin fibroblast, Fibroblasts, 48 h, average of three assays, standard error ± 0.5 μM) greater than 25000 nM. Besides, the viability at 25 µM in data set [1] was found to be 9%; in the data set with HaCat keratinocyte it was 11%; in data set [2] (Homo sapiens), 35%; in the data set with MDA-MB231 cells, 41%; in data set [3], 36%; in data set [4] (setting [6]), 59%. Also, the figures for the viability at 25 µM (in data set [5]; in the data set on diploid skin fibroblasts (setting [7])) were 29% and 76%, respectively.

Regarding `COc1ccc(CNCCCCN)cc1.Cl` [Compound 6b, N-1-(4-Methoxy-phenylmethyl)-butane1,4-diamine hydrochloride], the “% of Survival” value is 112% in [1]; 106% in the data set on HaCat keratinocyte; 100% in data set [2]; 100% in the data set with MDA-MB231 cells; 107% in data set [3]; 86% in data set [4] (setting [6]). In addition, the figures for the “% of Survival” value (in data set [5]; with diploid skin fibroblasts (setting [8])) were 114% and 100%, respectively.

As to `COc1cccc(CNCCCCN2C(=O)/C(=C/c3ccc4c(c3)OCO4)SC2=S)c1` [Compound 9e, (5Z)3-[4-(3-Methoxyphenylmethylamino)butyl]-5-(1,3-benzodioxol-5-ylmethylene)-2-thioxo-1,3-thiazolidin-4-one], the viability at 25 µM was 99% in data set [1]; 86% in the data set with HaCat keratinocyte; 85% in data set [2] (Homo sapiens); 97% with MDA-MB231 cells; 74% in [3]; 102% in [4] (setting [6]). In addition, the viability at 25 µM in [5] amounted to 97%; in the data set on diploid skin fibroblasts (setting [7]), 122%.

With `COc1cccc(CNCCCCN)c1.Cl` [Compound 6d, N-1-(3-Methoxy-phenylmethyl)-butane-1,4-diamine hydrochloride], the “% of Survival” value in [1] is 111%; in the data set with HaCat keratinocyte it was 96%; in data set [2] it was 98%; in the data set with MDA-MB231 cells, 99%; in data set [3], 107%; in data set [4] (setting [6]), 92%. For the same compound, the “% of Survival” value in data set [5] is 111%; in the data set on diploid skin fibroblasts (setting [8]), 93%.
